The source of these data is patent publication US10712352B2, “Methods and devices for assessing in vivo toxic levels of bilirubin and diagnosing increased risk of bilirubin neurotoxicity” (NEOMETRIX DX, priority 2018, dated 2020).

The target in data set [1] is human albumin (Homo sapiens, UniProt P02768). Kind of data set: Bilirubin binding before and after adding sulfisoxazole to a bilirubin/human albumin sample. An excerpt:
The clinically relevant quantification of bilirubin binding are the mass action variables above (BTotal, BFree, BTotal_2, BFree_2, BTmax, and KA) constitute a Bilirubin Binding Panel (BBP). Optionally, BTmax and KA can be used to determine whether a newborn binds bilirubin normally.
Measuring Total and Unbound Bilirubin (BTotal and BFree): The peroxidase test (see, e.g., Jacobsen J, Wennberg R P. Determination of unbound bilirubin in the serum of newborns. Clin Chem 1974; 20:783-789) measures both BTotal and BFree. This test is used clinically in Japan. In alternative embodiments, novel modifications of methods as provided herein measure BFree at two horseradish peroxidase levels to accurately determine BFree and measure BTotal and BFree before and after bilirubin enrichment of a plasma or other blood sample to provide BTmax and KA to complete the Bilirubin Binding Panel (BBP) described herein. […] The peroxidase test is based on the horse radish peroxidase (HRP) catalyzed oxidation of bilirubin by peroxide. Bilirubin absorbs light maximally at 440 nm when no albumin is present and at 460 nm when bound to albumin. Bilirubin bound to albumin is protected from oxidation and only BFree is oxidized. The light absorbance at 440 nm (no albumin) or 460 nm (albumin present) decreases as bilirubin is oxidized, and the reaction rate constant, Kp, can be determined using known bilirubin and HRP concentrations in solutions without albumin present (i.e. all the bilirubin is unbound or “free”) as shown in the equivalent velocity equations below: […]
BTotal is calculated from the absorbance prior to adding HRP and H2O2 and BFree from the change in absorbance following addition of HRP/H2O2 as further described below. […]
BTotal is calculated by dividing the initial absorbance by the known extinction coefficient (0.827/cm light path length for BTotal in […]) and BFree is calculated from the change in absorbance at 460 nm after adding HRP/H2O2. […]

The test system of data set [2] is plasma bilirubin binding sites (e.g. albumin). In words: Bilirubin binding panel (peroxidase test, before and after bilirubin enrichment) in plasma of 31 newborns <28 weeks gestation. Also noted: species or system human. The text has this:
[formula] can be readily solved by for BTmax and KA by measuring BTotal and BFree before and after enrichment of the sample with bilirubin to provide BTotal, BFree, and BTotal_2, BFree_2. These provide two equations with two unknowns (BTmax and KA), that can be solved for BTmax as shown below:
(§1) This test is used clinically in Japan.
(§2) BFree is obtained by measuring BFss at the additional HRP concentration and using […]

Data set [3] addresses human defatted albumin (Homo sapiens, UniProt P02768). In words: Bilirubin binding isotherm in artificial serum containing human defatted albumin (peroxidase test). The following applies: albumin 3.0 g/dL. On the procedure:
FIG. 5 illustrates the change in BFree (black dots) as BTotal increases. The negative intercept of 1/BFree versus 1/BTotal, i.e. KA, is […] and the negative slope/intercept, i.e. BTmax, is 37.5 mg/dL. The BTmax and KA in Table 3 are calculated as described above using the lowest BTotal (8.3 mg/dL) and BFree (0.51 μg/dL) paired with each of the other five measures of BTotal and BFree. The mean BTmax and KA of all 15 possible pairings in TABLE 4 are 39.1 mg/dL and 0.56 dL/μg, respectively.
Non-linear regression analysis of the molar ratios versus the BFree from TABLE 3 were used to determine the best fit K1 (0.93 dL/μg) and K2 (0.04 dL/μg) using the stoichiometric equation
as §1, §2

Structures are written as SMILES.

human defatted albumin, sequence (P02768 25-609): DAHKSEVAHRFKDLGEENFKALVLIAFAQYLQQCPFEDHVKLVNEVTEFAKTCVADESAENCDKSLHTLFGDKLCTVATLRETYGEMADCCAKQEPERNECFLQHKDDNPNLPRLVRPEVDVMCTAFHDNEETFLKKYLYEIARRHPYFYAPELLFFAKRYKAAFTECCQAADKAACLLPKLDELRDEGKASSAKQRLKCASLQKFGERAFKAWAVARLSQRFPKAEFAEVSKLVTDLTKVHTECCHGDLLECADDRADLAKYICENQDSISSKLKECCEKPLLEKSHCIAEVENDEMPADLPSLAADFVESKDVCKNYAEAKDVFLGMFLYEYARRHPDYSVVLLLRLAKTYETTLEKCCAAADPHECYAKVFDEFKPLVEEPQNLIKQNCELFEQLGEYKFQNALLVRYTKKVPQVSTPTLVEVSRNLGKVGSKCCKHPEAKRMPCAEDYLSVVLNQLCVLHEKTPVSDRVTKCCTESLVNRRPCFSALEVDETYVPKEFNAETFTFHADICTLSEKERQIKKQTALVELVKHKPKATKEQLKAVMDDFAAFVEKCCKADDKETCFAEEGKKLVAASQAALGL
human albumin, sequence (P02768 25-609): as above

In data set [1] (3.0 g/dL albumin, without or with sulfa), `Cc1noc(NS(=O)(=O)c2ccc(N)cc2)c1C` [+ sulfa, sulfisoxazole] showed a KA of 0.20 dL/µg. For the same compound, the “effect of adding sulfisoxazole on bilirubin BFree” value in data set [1] (bilirubin/human albumin sample, 3.0 g/dL albumin) is reported as “about doubles the BFree”.
For the compound `C=CC1=C(C)/C(=C/c2[nH]c(Cc3[nH]c(/C=C4\NC(=O)C(C)=C4C=C)c(C)c3CCC(=O)O)c(CCC(=O)O)c2C)NC1=O` [bilirubin], the “BFree_2 (free bilirubin after bilirubin enrichment)” value in data set [2] (25th-75th percentile, after enrichment) is 1.1 to 3.3 µg/dL; in data set [2] (mean, after enrichment (mean BTotal_2 13.8 mg/dL)), 2.51 µg/dL; in data set [2] (median, after enrichment (median BTotal_2 13.7 mg/dL)) it was 1.93 µg/dL; in data set [2] (range, after enrichment (BTotal_2 6.3-23.0 mg/dL)) it was 0.42 to 10.61 µg/dL. Further, the BFree in data set [3] (BTotal 8.3 mg/dL (BTotal/ATotal molar ratio 0.31)) was determined as 0.51 µg/dL; in data set [3] (BTotal 11.7 mg/dL (molar ratio 0.44)), 0.92 µg/dL; in data set [3] (BTotal 18.5 mg/dL (molar ratio 0.69)), 1.70 µg/dL; in data set [3] (BTotal 22.2 mg/dL (molar ratio 0.83)), 2.39 µg/dL; in data set [3] (BTotal 28.3 mg/dL (molar ratio 1.06)) it was 6.05 µg/dL; in data set [3] (BTotal 31.3 mg/dL (molar ratio 1.18)) it was 9.88 µg/dL. The compound further showed a BFree in data set [1] (human, 8.3 mg/dL, pH 7.4) of 0.51 µg/dL.
